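96-well plates; 48 h exposure; 5 concentrations. Endpoints by linear interpolation between flanking doses. Not reached: highest tested concentration assigned. GI50: concentration for 50% inhibition of growth.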 Activity calls are given as the source filed them. No stated cut-off is given here; in the data, active = GI50 up to about 1.1 µM and inactive = higher.
Experiments:
Experiment in all cases: NCI tumour cell line growth inhibition, 48 h
M14 = tested on: M14
SNB-19 = tested on: SNB-19
SF-539 = tested on: SF-539
RXF 393 = tested on: RXF 393
HT-29 = tested on: HT-29
UACC-62 = tested on: UACC-62
Malme-3M = tested on: Malme-3M
OVCAR-8 = tested on: OVCAR-8
HL-60 = tested on: HL-60
COLO 205 = tested on: COLO 205
OVCAR-3 = tested on: OVCAR-3
DU-145 = tested on: DU-145
MOLT-4 = tested on: MOLT-4
SK-MEL-28 = tested on: SK-MEL-28
MDA-MB-231 = tested on: MDA-MB-231
SW-620 = tested on: SW-620
HOP-62 = tested on: HOP-62
HCT-15 = tested on: HCT-15
MDA-MB-435 = tested on: MDA-MB-435
RPMI-8226 = tested on: RPMI-8226

Compound | GI50 (M14) | GI50 (SNB-19) | GI50 (SF-539) | GI50 (RXF 393) | GI50 (HT-29) | GI50 (UACC-62) | GI50 (Malme-3M) | GI50 (OVCAR-8) | GI50 (HL-60) | GI50 (COLO 205) | GI50 (OVCAR-3) | GI50 (DU-145) | GI50 (MOLT-4) | GI50 (SK-MEL-28) | GI50 (MDA-MB-231) | GI50 (SW-620) | GI50 (HOP-62) | GI50 (HCT-15) | GI50 (MDA-MB-435) | GI50 (RPMI-8226)
S=C1Cc2c(-c3ccccc3)cc(-c3ccc(Cl)cc3)nc2-c2ccccc2N1 | 3.97 µM (inactive) | 1.56 µM (inactive) | 3.08 µM (inactive) | 3.06 µM (inactive) | 2.65 µM (inactive) | 2.45 µM (inactive) | 3.33 µM (inactive) | 0.982 µM (active) | 16.9 µM (inactive) | 5.57 µM (inactive) | 3.07 µM (inactive) | 13 µM (inactive) | 3.79 µM (inactive) | 3.4 µM (inactive) | 1.53 µM (inactive) | 2.94 µM (inactive) | 1.39 µM (inactive) | 6.84 µM | 4.79 µM (inactive) | > 100 µM (inactive)
Cc1ccc(C2SCc3nc4ccccc4n32)cc1 (stereo not given) | 4.49 µM (inactive) | 4.65 µM (inactive) | 2.29 µM (inactive) | 1.98 µM (inactive) | 2.47 µM (inactive) | 2.43 µM (inactive) | 4.04 µM (inactive) | 3.66 µM (inactive) | 1.6 µM (inactive) | 1.36 µM (inactive) | 4.72 µM (inactive) | 4.29 µM (inactive) | 2.96 µM (inactive) | 6.62 µM (inactive) | 10.6 µM (inactive) | 4.84 µM (inactive) | 3.44 µM (inactive) | 1.85 µM | 0.451 µM (active) | 5.31 µM (inactive)
N#Cc1nnn(-c2ccccc2)c1O | > 100 µM (inactive) | > 100 µM (inactive) | > 100 µM (inactive) | > 100 µM (inactive) | > 100 µM (inactive) | > 100 µM (inactive) | > 100 µM (inactive) | > 100 µM (inactive) | > 100 µM (inactive) | > 100 µM (inactive) | > 100 µM (inactive) | > 100 µM (inactive) | > 100 µM (inactive) | > 100 µM (inactive) | > 100 µM (inactive) | > 100 µM (inactive) | > 100 µM (inactive) | > 100 µM | > 100 µM (inactive) | > 100 µM (inactive)
CCCCC/C(=N\c1[nH]nnc1C(N)=O)OCC | > 100 µM (inactive) | > 100 µM (inactive) | > 100 µM (inactive) | > 100 µM (inactive) | > 100 µM (inactive) | > 100 µM (inactive) | > 100 µM (inactive) | > 100 µM (inactive) | > 100 µM (inactive) | > 100 µM (inactive) | > 100 µM (inactive) | > 100 µM (inactive) | > 100 µM (inactive) | > 100 µM (inactive) | > 100 µM (inactive) | > 100 µM (inactive) | > 100 µM (inactive) | > 100 µM | > 100 µM (inactive) | > 100 µM (inactive)
c1ccc(-c2cc3[nH]c4ccccc4[nH]c-3cc(-c3ccccc3)nn2)cc1 | > 100 µM (inactive) | 41.6 µM (inactive) | 39.6 µM (inactive) | 76.9 µM (inactive) | 50.9 µM (inactive) | > 100 µM (inactive) | 62.4 µM (inactive) | 54.2 µM (inactive) | 20.6 µM (inactive) | > 100 µM (inactive) | 22.7 µM (inactive) | 52.7 µM (inactive) | > 100 µM (inactive) | > 100 µM (inactive) | 80 µM (inactive) | 81.7 µM (inactive) | 26.3 µM (inactive) | 87.7 µM | 64.3 µM (inactive) | 88.1 µM (inactive)

Source: ChEMBL document CHEMBL1201862, “PubChem BioAssay data set” (2004)
